In article PMC12491701, “Discovery of an APP-selective BACE1 inhibitor for Alzheimer's disease” (Neurotherapeutics, 2025):

Legend:
[1] = molecular target: T1, human serum albumin (HSA) (Homo sapiens, UniProt P02768); experiment: Human serum albumin (HSA) binding assay; type: in vitro ADME
T1 construct: purchased Chiral Technologies H15L-109
Description: Human serum albumin (HSA) binding assay
The liquid chromatography-ultraviolet/visible spectroscopy (LC-UV/Vis) assay was performed on a 1290 Infinity HPLC system (Agilent Technologies) with an HPLC column containing immobilized HSA
([…]® CAN, Chiral Technologies, Cat#H15L-109, 5 µm 50 x 4 mm). The HPLC method utilized an isocratic gradient containing 100% 6.7 mM phosphate buffer saline (pH 7.4). The retention time of the compound (tr) and injection peak were recorded.
The percent protein binding (P) was calculated using the following equations:
K’ = (tr – tm) / tm; P = 100 x [K’ / (K’ + 1)] […]
The […]
KIAM = (tr – t0) / t0; Pm = (KIAM / MW4) x 1010
Compounds with a Pm >0.85 are predicted to be BBB permeable (CNS+) at pH 7.4.
Brain Tissue Binding Assay […]
Cat#23235). Brain homogenate was diluted to 20 mg/mL in PBS (pH 7.4) and added to Slide-A-Lyzer™ MINI Dialysis Devices, 10K MWCO dialysis cups (Thermo Fisher Scientific, Cat#PI88401) in a 48-well plate containing PBS (500 µL; pH 7.4). 1 µL of 1 mM compound was added to the brain homogenate (final concentration: 2 µM compound, 0.5% DMSO) and incubated on a rocker for 4.5 hours at 37 °C. 50 µL of brain homogenate (within the dialysis cup) and PBS (within the 48-well plate) were transferred to new microcentrifuge tubes containing 200 µL of quenching reagent (100% acetonitrile) containing internal […]
standard. […]

Pharmacokinetics in mice = type: in vivo, mouse; settings: mice
Description: Wildtype or non-transgenic (NTg) C57Bl6 mice or Sprague-Dawley rats were dosed by oral (gavage) or subcutaneous (SQ) injection at 10 or 30 mg/kg, and animals were euthanized 1, 2, 6, and 8 h after administration by ketamine/xylazine over-anesthesia, in rats, CSF was also collected, followed by transcardial collection of blood for isolation of plasma and saline perfusion. Brain tissue was collected post-mortem for assessment of compound levels and biomarkers.
Analyses of compound levels in PK studies were performed in the UCLA Pasarow Mass Spectrometry Lab (PMSL; Julian Whitelegge, Ph.D., Director). Tissues were homogenized in a bead beater using 5 vol of ice-cold 80 % acetonitrile (1/5; mg of brain/μL of 80 % ACN). Plasma analytes were extracted using 4 vol of ice-cold acetonitrile (1/4; μL of plasma/μL of 100 % ACN). Solutions were clarified by centrifugation (16,000×g, 5 min) and the supernatants were transferred to new tubes and lyophilized. Samples were reconstituted in 100 μL of 50/50/0.1 (Water/Acetonitrile/Formic Acid) prior to analysis via liquid chromatography-tandem mass spectrometry (LC-MS/MS).
An internal standard (IS) was added to every sample to account for compound loss during sample processing. Standards were made in drug naïve plasma and tissue lysates with increasing amounts of analyte (S1, S2: 0 pmol/S3, S4: 1 pmol/S5, S6: 10 pmol/S7, S8: 100 pmol, S9, S10: 1000 pmol). The standard curve was made by plotting the known amount of analyte per standard vs. the ratio of measured chromatographic peak areas corresponding to the analyte over that of the IS (analyte/IS). The trendline equation was then used to calculate the absolute concentrations of each compound in plasma and tissue.
The targeted LC-MS/MS assay was developed using the multiple reaction monitoring (MRM) acquisition method on a 6460 triple quadrupole mass spectrometer (Agilent Technologies) coupled to a 1290 Infinity HPLC system (Agilent Technologies) with a Phenomenex analytical column (Kinetex 1.7 μm C18 100 Å 100 × 2.1 mm). The HPLC method utilized a mixture of solvent A (99.9/0.1 Water/Formic Acid) and solvent B (99.9/0.1 Acetonitrile/Formic Acid) and a gradient was use for the elution of the compounds (min/%B: 0/1, 3/1, 19/99, 20/1, 30/1). Two fragment ions were monitored at specific LC retention times to ensure specificity and accurate quantification in the complex biological samples. The normalized chromatographic peak areas were determined by taking the ratio of measured chromatographic peak areas corresponding to the compound over that of the internal standard (Analyte/IS).
The Tmax, Cmax, brain-to-plasma ratios and brain levels were then calculated using PK Solutions software (SummitPK).

[2] = molecular target: T2, potassium channel hERG (human) (Homo sapiens, UniProt Q12809); experiment: hERG [3H] dofitilide binding assay
T2 construct: Eurofins (CEREP PanLabs)
Description: The raw data uncorrected for contribution of
Animals were euthanized at
biochemical analyses (Fig. S3).
at Lotus Separations (Princeton, NJ).

[3] = Liver microsome stability assay; type: in vitro ADME; settings: human, human liver microsomes, pH 7.4, human liver microsomes; read-out: Microsomal stability T1/2
Description: Liver microsome stability assay
A 1 µL sample of 1 mM FAH65 and its enantiomers in 100% DMSO was added to 1 mL of 0.5 mg/mL human liver microsomes (Thermo Fisher Scientific, Cat# HMMPL) in PBS pH 7.4, 2 mM NADPH, and 2 mM MgCl2; and incubated at 37 °C for 120 min. Aliquots (50 µL) of the microsome solution were taken […]
quenching solution containing an internal standard. Solutions were clarified by centrifugation (16K x g, 5 min) and supernatants transferred to new tubes and lyophilized. Samples were reconstituted in 100 µL of 50/50/0.1 water/acetonitrile/formic acid prior to analysis via LC-MS/MS.
Normalized chromatographic peak areas were plotted at each time point and the half-life (t1/2) of compound in liver microsomes was determined by using the trendline equation to calculate the time at which compound abundance was 50% of that at timepoint 0 (T0).
One µL FAH65 and its enantiomers (1 mM in 100% DMSO) was added to human peripheral blood plasma (Cat#70039, Stemcell Technologies Inc) diluted 2-fold in PBS (1000 µL, pH 7.4) and incubated […]
and 180 min, and added to a 200 µL 100% acetonitrile reaction quenching solution containing an internal standard. Solutions were clarified by centrifugation (16K x g, 5 min) and supernatants were transferred to new tubes and lyophilized. […]

T2 sequence (Q12809 whole entry): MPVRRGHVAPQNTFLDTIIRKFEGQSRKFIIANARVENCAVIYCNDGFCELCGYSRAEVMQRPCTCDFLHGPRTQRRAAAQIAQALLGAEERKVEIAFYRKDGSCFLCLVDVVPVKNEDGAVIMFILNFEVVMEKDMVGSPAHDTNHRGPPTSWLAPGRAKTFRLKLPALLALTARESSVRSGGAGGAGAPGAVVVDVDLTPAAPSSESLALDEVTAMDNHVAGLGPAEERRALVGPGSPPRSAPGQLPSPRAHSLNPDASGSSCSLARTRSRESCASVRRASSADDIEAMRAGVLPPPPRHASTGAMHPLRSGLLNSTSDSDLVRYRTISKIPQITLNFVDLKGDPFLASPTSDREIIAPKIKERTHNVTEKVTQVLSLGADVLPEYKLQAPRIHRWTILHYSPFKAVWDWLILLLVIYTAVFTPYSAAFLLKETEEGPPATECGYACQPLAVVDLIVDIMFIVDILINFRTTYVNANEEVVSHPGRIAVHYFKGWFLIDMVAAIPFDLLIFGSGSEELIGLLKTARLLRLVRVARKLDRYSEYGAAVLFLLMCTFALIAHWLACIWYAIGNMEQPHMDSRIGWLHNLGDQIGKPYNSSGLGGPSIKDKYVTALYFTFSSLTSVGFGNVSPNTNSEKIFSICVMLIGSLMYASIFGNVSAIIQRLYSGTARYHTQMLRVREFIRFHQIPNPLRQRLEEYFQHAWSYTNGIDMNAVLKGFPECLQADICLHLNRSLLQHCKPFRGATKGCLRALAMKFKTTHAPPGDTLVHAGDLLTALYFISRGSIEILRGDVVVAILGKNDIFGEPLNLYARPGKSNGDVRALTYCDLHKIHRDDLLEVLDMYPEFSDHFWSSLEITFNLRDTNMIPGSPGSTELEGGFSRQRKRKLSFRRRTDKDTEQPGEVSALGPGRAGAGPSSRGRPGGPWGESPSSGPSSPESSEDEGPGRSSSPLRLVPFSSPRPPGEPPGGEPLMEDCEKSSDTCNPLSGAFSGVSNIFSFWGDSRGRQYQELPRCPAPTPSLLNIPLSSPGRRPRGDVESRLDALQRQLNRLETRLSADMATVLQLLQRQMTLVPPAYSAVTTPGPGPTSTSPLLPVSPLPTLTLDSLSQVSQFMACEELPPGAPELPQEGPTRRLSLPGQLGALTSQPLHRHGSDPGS
T1 sequence (P02768 25-609): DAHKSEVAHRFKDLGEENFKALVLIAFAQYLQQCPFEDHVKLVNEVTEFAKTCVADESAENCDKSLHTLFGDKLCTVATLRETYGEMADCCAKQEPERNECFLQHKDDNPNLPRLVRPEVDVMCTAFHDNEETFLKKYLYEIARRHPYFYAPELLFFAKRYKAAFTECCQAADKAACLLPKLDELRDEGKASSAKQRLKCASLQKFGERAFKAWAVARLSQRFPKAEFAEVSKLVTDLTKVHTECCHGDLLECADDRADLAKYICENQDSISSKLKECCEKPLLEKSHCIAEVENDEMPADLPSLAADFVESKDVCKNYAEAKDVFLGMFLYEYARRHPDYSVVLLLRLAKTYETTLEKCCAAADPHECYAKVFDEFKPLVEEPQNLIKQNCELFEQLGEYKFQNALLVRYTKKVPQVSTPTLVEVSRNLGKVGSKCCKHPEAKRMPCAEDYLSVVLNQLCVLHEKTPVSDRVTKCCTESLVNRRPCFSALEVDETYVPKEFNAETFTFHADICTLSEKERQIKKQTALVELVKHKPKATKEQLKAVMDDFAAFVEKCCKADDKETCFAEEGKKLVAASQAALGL

Plasma (HSA) binding, funbound [1]: 0.44%
Cmax (Pharmacokinetics in mice; C57Bl6, mouse, plasma, oral, 30 mg/kg): ~0.05 µg/mL
brain Cmax (Pharmacokinetics in mice; oral, 30 mg/kg): 74 ng/g
time of brain Cmax (Pharmacokinetics in mice; oral, 30 mg/kg): 1 h
compound levels in plasma (Pharmacokinetics in mice; subcutaneous (SQ), 10 or 30 mg/kg): over 3000 ng/mL
half-life at 1 µM [3]: 38 min
SMILES: Cc1cc(C2(c3cccc(-c4cncnc4)c3)N=C(N)N(C)C2=O)ccc1OC(F)F (centres unmarked) [FAH65]
EC50 [2]: > 10 µM
IC50 [2]: > 10 µM
